Tests used:
Type in all cases: cell-based
[1] = tested on: Candida albicans and Aspergillus niger; test: Mixed fungal challenge of preserved anionic protein shampoo (Example 5)
Description: Each anionic shampoo sample in Table 4 below was tested as follows. A standard mixed […] solution was prepared according to the following procedure. 2 agar […] of Candida albicans and 4 agar […] of Aspergillus niger were separately incubated at about 25 EC for about 48 hours and 7 days, respectively. Each slant was washed with 3 mL of sterile 0.85% saline solution, collected and macerated in a tissue grinder. Sufficient amounts of 0.85% saline solution were added to each slant to obtain a visual count under a microscope with a Neubauer Hemocytometer of each innoculum of C. albicans and A. niger. Equal volumes of each standardized innoculum of C. albicans and A. niger were mixed together to form the standardized mixed fungal solution. 40 g of each shampoo sample was inoculated with 0.4 mL of the standardized mixed fungal solution and mixed. 1 g of the mixture was added to a sterile 20×150 mm screw cap test tube. 9 mL of sterile D/E neutralizer broth was added to the test tube and mixed to form a 10^-1 dilution. Serial dilutions were prepared through to a 10^-6 dilution with phosphate buffered water. The serial dilutions were plated onto Sabourand dextrose agar and incubated 5 days at about 25 EC. […] The anionic protein shampoo composition is described in Example 4. The shampoo samples were prepared by mixing the appropriate amounts of the preservatives and the anionic protein shampoo composition and heating the mixture to about 50 EC for about 15 minutes.

[2] = tested on: S. aureus, P. aeruginosa, and E. coli; test: Mixed bacterial challenge of preserved GMS cream (Example 6)
Description: Each anionic shampoo sample in FIGS. 1-3 were tested as follows. […] Each stab was then washed with 3 mL of sterile 0.85% saline solution. The washes of the 3 stabs were pooled together to form an organism mixture. The absorbance of the organism mixture at 530 nm was adjusted to about 1.00 by adding saline. The spectrometer was calibrated with a saline blank. A 5 mL aliquot of the organism mixture was mixed together to produce the standardized mixed bacterial solution. Then, 40 g of each shampoo sample was inoculated with 0.2 mL of the standardized mixed bacterial solution and mixed. 1 g of the mixture was added to a sterile 20×150 mm screw cap test tube. 9 mL of sterile D/E neutralizer broth was added to the test tube and mixed to form a 10^−1 dilution. Serial dilutions were prepared through to a 10^−6 dilution with phosphate buffered water. The serial dilutions were plated onto Tryptic Soy Agar and incubated for 2 days at about 35 EC. Bacteria counts were performed after 21 days. Each cream sample in Table 5 below was tested by the procedure described in Example 1. A glyceryl monostearate (GMS) cream as described in Table 3 below was prepared as follows. The polyoxyethylene glyceryl monostearate, glyceryl monostearate, cetearyl alcohol, and myristyl propionate were mixed and heated to 60 EC in a first container. The glycerin and sterile deionized water were mixed and heated to 60 EC in a second container. The solution in the first container was poured into the second container. The second container was maintained at 60 EC for 10 minutes. The solution in the second container was allowed to cool. The pH of the solution was adjusted to pH 7 with sodium hydroxide to yield the GMS cream. The cream samples shown in Table 6 below were prepared by mixing the appropriate amounts of the preservatives and the GMS cream and heating the mixture to 50 EC for 10-15 minutes.

fungi = test: Fungal plate count of preserved GMS cream (Example 6)
Description: Each cream sample in Table 5 below was tested by the procedure described in Example 1. A glyceryl monostearate (GMS) cream as described in Table 3 below was prepared as follows. The polyoxyethylene glyceryl monostearate, glyceryl monostearate, cetearyl alcohol, and myristyl propionate were mixed and heated to 60 EC in a first container. The glycerin and sterile deionized water were mixed and heated to 60 EC in a second container. The solution in the first container was poured into the second container. The second container was maintained at 60 EC for 10 minutes. The solution in the second container was allowed to cool. The pH of the solution was adjusted to pH 7 with sodium hydroxide to yield the GMS cream. The cream samples shown in Table 7 below were prepared by mixing the appropriate amounts of the preservatives and the GMS cream and heating the mixture to 50 EC for 10-15 minutes.

O=CC=Cc1ccccc1 [Cinnamaldehyde, cinnamaldehyde]
Fungal Plate Count Day 0 ([1]; 0.05% in shampoo): 1.0 × 10^5 cfu/g
Fungal Plate Count Day 7 ([1]; 0.05% in shampoo): 8.0 × 10^3 cfu/g
Fungal Plate Count Day 14 ([1]; 0.05% in shampoo): <10 cfu/g
Fungal Plate Count Day 0 ([1]; 0.10% in shampoo): 1.0 × 10^5 cfu/g
Fungal Plate Count Day 7 ([1]; 0.10% in shampoo): 3.0 × 10^1 cfu/g
Fungal Plate Count Day 14 ([1]; 0.10% in shampoo): <10 cfu/g
Fungal Plate Count Day 0 ([1]; 0.20 in shampoo): 1.0 × 10^5 cfu/g
Fungal Plate Count Day 7 ([1]; 0.20 in shampoo): <10 cfu/g
Fungal Plate Count Day 14 ([1]; 0.20 in shampoo): <10 cfu/g
S. aureus, P. aeruginosa, and E. coli Day 0 ([2]; 0.10% in GMS cream pH 7, Day 0): 3.0 × 10^7 cfu/g
S. aureus, P. aeruginosa, and E. coli Day 7 ([2]; 0.10% in GMS cream pH 7, Day 7): 4.0 × 10^4 cfu/g
S. aureus, P. aeruginosa, and E. coli Day 14 ([2]; 0.10% in GMS cream pH 7, Day 14): 9.3 × 10^5 cfu/g
S. aureus, P. aeruginosa, and E. coli Day 0 ([2]; 0.25% in GMS cream pH 7, Day 0): 3.0 × 10^7 cfu/g
S. aureus, P. aeruginosa, and E. coli Day 7 ([2]; 0.25% in GMS cream pH 7, Day 7): <10 cfu/g
S. aureus, P. aeruginosa, and E. coli Day 14 ([2]; 0.25% in GMS cream pH 7, Day 14): <10 cfu/g
Fungal Plate Count Day 0 (fungi; 0.10% in GMS cream): 1.0 × 10^5 cfu/g
Fungal Plate Count Day 7 (fungi; 0.10% in GMS cream): <10 cfu/g
Fungal Plate Count Day 14 (fungi; 0.10% in GMS cream): <10 cfu/g
Fungal Plate Count Day 0 (fungi; 0.25% in GMS cream): 1.0 × 10^5 cfu/g
Fungal Plate Count Day 7 (fungi; 0.25% in GMS cream): <10 cfu/g
Fungal Plate Count Day 14 (fungi; 0.25% in GMS cream): <10 cfu/g

From patent publication US8784910B2, “Antimicrobial compositions” (Lonza Inc., priority 2002, dated 2014)
